Test results from EP0166357A2, “Benzofused lactams and pharmaceutical compositions containing them” (Merck & Co., Inc., priority 1984, dated 1986).

These compounds were tested against CCK receptor (assay: 125I-CCK-33 receptor binding assay). Conditions: tissue not stated for the values (methods given for rat pancreas and guinea pig brain cortex membranes); read-out: IC50, inhibition of specific 125I-CCK-33 binding.
Experimental: CCK-33 was radiolabeled with […] (2000 Ci/mmole) as described by Sankara et al. [J. Biol. Chem. 254: 9349-9351, (1979)]. Receptor binding was performed according to Innis and Snyder [Proc. Natl. Acad. Sci. 77: 6917-6921, (1980)] with the minor modification of adding the additional protease inhibitors, phenylmethane sulfonyl fluoride and o-phenanthroline. The latter two compounds have no effect on the ^125I-CCK receptor binding assay.
Male Sprague-Dawley rats (200-350g) were sacrificed by decapitation. The whole pancreas was dissected free of fat tissue and was homogenized in 20 volumes of ice-cold 50 mM, Tris HC1 (pH 7.7 at 25°C) with a Brinkman Polytron PT 10. The homogenates were centrifuged at 48,000 g for 10 min. Pellets were resuspended in Tris Buffer, centrifuged as above and resuspended in 200 volumes of binding assay buffer (50 mM Tris HC1, pH 7.7 at 25°C, 5 mM dithiothriethel, 0.1 mM bacitracin, 1.2 mM phenylmethane sulfonyl fluoride and 0.5 mM o-phenanthroline). For the binding assay, 25 µl of buffer (for total binding) or unlabeled CCK-8 sulfate to give a final concentration of luM (for nonspecific binding) or the compounds of Formula 1 (for determination inhibition of 125I-CCR binding) and 25 µl of 125I-CCK-33 (30,000-40,000 cpm) were added to 450 µl of the membrane suspensions in microfuge tubes. All assays were run in duplicate or triplicate. The reaction mixtures were incubated at 37°C for 30 minutes and centrifuged in a Beckman Microfuge (4 minutes) immediately after adding 1 ml of ice-cold incubation buffer. The supernatant was aspirated and discarded, pellets were counted with a Beckman gamma 5000.
CCK-33 was radiolabeled with and the binding was performed according to the description for the pancreas method with modifications according to Saito, et al. (J. Neurochem, 37, 483-490 (1981)).
Hall Hartley guinea pigs (300-500 g) were sacrificed by decapitation and the brains were removed and placed in ice-cold 50 mM, Tris HC1 plus 7.58 g/1 Tritma-7.4 (pH 7.4 at 25°C) Cerebral cortex was dissected and used as a receptor source. Each gram of fresh guinea pig brain tissue was homogenized in 10 ml of Tris/Trizma buffer with a Brinkman polytron PT-10. The homogenates were centrifuged at 42,000 g for 15 minutes. Pellets were resuspended in Tris Buffer, centrifuged as above and resuspended in 200 volumes of binding assay buffer (10 mM HEPES, pH 7.7 at 25°C, 5 mM Mg C12, […], 0.4% BSA (bovine serum albumin) and 0.25 mg/ml bacitracin). For the binding assay, 25 µl of buffer (for total binding) or unlabeled CCK-8 sulfate to give a final concentration of 1µM (for nonspecific binding) or the compounds of Formula 1 (for determination inhibition of ^125I-CCK binding) and 25 µl of ^125I-CCK-33 (30,00-40,000 cpm) were added to 450 µl of the membrane suspensions in microfuge tubes. All assays were run in duplicate or triplicate. The reaction mixtures were incubated at 25°C for 2 hours and centrifuged in a Beckman Microfuge (4 minutes) immedidately after adding 1 ml of ice-cold incubation buffer. The supernatant was aspirated and discarded, pellets were counted with a Beckman gamma 5000.

SMILES | IC50 [µM]
CCOC(=O)C(CCc1ccccc1)NC1CCc2ccccc2N(C)C1=O (single isomer, unassigned) [1-Methyl-3-(1-Carboethoxy-3-phenyl-1-propyl) aminohomodihydrocarbostyril] | 60
CC(C)(C)OC(=O)CN1C(=O)C(NC(=O)[C@H](Cc2c[nH]c3ccccc23)NC(=O)OCc2ccccc2)CCc2ccccc21 (single isomer, unassigned) [l-t-Butoxycarbonylmethyl-3(-L-N-carbobenzyloxytrypto- phanyl)aminohomodihydrocarbostyril] | 1.2
CC(=O)N[C@H](Cc1c[nH]c2ccccc12)C(=O)NC1CCc2ccccc2N(CC(=O)OC(C)(C)C)C1=O (single isomer, unassigned) [1-t-Butoxycarbonylmethyl-3-(D-N-acetyltryptophanyl)-aminohomodihydrocarbostyril] | 1.6
CC(=O)N[C@@H](Cc1c[nH]c2ccccc12)C(=O)NC1CCc2ccccc2N(CC(=O)OC(C)(C)C)C1=O (single isomer, unassigned) [l-t-Butoxycarbonylmethyl-3-(L-N-acetyltryptophanyl)-aminohomodihydrocarbostyril] | 2.8
COC(=O)CN1C(=O)C(NCc2c[nH]c3ccccc23)CCc2ccccc21 (racemic) [l-Carbomethoxymethyl-3-(3-indolemethyl)amino homodihydrocarboxtyril] | 15
